Reference: patent US7083982B2, “Helium-neon excitable reticulocyte dyes derivable from halolepidines” (Abbott Laboratories, priority 1996, dated 2006)

How the values were obtained:
[1] = Absorption maximum of the dye; type: physicochemical; conditions: for absorption maximum in methanol: in methanol solution
Method: The following table sets forth the absorption maximum in nanometers for several dyes suitable for use in this invention.
To the activated 3-ethyl-2-methylbenzothiazolium derivative obtained above (4.5 mg) was added the 7-chloro-1-methyllepidinium salt obtained above (3.8 mg) in chloroform (250 μL) to form a mixture. Then triethylamine (50 μL) was added to the mixture. The resulting mixture was stirred at reflux for 30 minutes, during which time a dark blue solution was obtained. Diethyl ether was added to the solution and the resultant suspension was centrifuged. The supernatant was discarded and the precipitate resuspended in diethyl ether and centrifuged (2 times). The dark powder absorbed maximally at 638 nm in methanol solution.

RNA = experiment: Fluorescence of dye with RNA in CD4000 Retic Buffer, flow cytometer with helium-neon laser
Method: (§1) Fluorescence was determined by dissolving the dye in a buffer (“CD4000 Retic Buffer”) at neutral pH and at a final concentration of 0.5 μg/ml of test solution. The “CD4000 Retic Buffer” contained the following ingredients in the amounts indicated: The tests were run in a flow cytometer with a helium-neon laser light source. The helium-neon laser provided light at a wavelength of 630 nm. The optical system was a conventional optical system.

[2] = Fluorescence of dye only in CD4000 Retic Buffer, flow cytometer with helium-neon laser; type: physicochemical
Method: as §1

DNA = experiment: Fluorescence of dye with DNA in CD4000 Retic Buffer, flow cytometer with helium-neon laser
Method: as §1

[3] = fluorescence relative to dye only intensity 1.0

| SMILES | Absorption maximum (nm) [1] [nm] | absorption maximum in methanol [1] [nm] | other results |
| --- | --- | --- | --- |
| CN1C=C/C(=C\C=C\c2sc3ccccc3[n+]2C)c2ccc(Br)cc21 [Dye 5] | 638 | – | – |
| CN1C=C/C(=C\C=C\c2oc3ccc4ccccc4c3[n+]2C)c2ccc(Cl)cc21 [Dye 9] | 624 | 624 | – |
| CN1C=C/C(=C\C=C\c2sc3ccccc3[n+]2C)c2ccc(F)cc21 [Dye 2] | 628 | – | – |
| CC[n+]1c(/C=C/C=C2\C=CN(C)c3cc(Cl)ccc32)sc2ccccc21 [Dye 7] | 638 | 638 | Bandwidth with RNA (RNA; emission, with RNA): 36; Enhancement with RNA (RNA; [3]): 39.1; Emission wavelength with RNA (nm) (RNA; with RNA, 0.5 μg/ml, neutral pH, 630 nm laser): 671.2 nm; Emission wavelength - dye only (nm) ([2]; 0.5 μg/ml, neutral pH, 630 nm laser): 655.6 nm; Bandwidth ([2]; emission): 45; Bandwidth with DNA (DNA; emission, with DNA): 35; Enhancement with DNA (DNA; [3]): 50.4; Emission wavelength with DNA (nm) (DNA; with DNA, 0.5 μg/ml, neutral pH, 630 nm laser): 661.8 nm |
| CN1C=C/C(=C\C=C\c2sc3ccccc3[n+]2C)c2ccc(Cl)cc21 [Dye 8] | – | 638 | – |
| CN1C=C/C(=C\C=C\C2=[N+](C)c3ccc4ccccc4c3C2(C)C)c2ccc(Cl)cc21 [Dye 6] | – | 623 | – |
